Laboratory results: the supplement of paper PMC10307832

Compound: CC1=C(C(=NN1)C)CC2=C(C3=C(S2)N(C(=O)N(C3=O)C)CC(C)C)C(=O)N4C[C@@H](CO4)O + NC(=O)Nc1cc(-c2cccc(F)c2)sc1C(=O)N[C@H]1CCCNC1 [AZD7762] (partner 0.2 µM)
Experiment: relative viability (nuclei count vs DMSO), 5 days (fraction); higher = more cells survive
Conditions: first compound 0.25 µM
Outline: (§1)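 A single step with final 0.05% Triton X-100, 1% formaldehyde and 1 ug/ml Hoechst fixed the cells and stained nuclei 5 days after treatment. Lung cancer cell lines in 1536-well plates had been treated by pin tool the day after seeding with one drug alone or a fixed anchor-drug dose plus five library-drug doses (not always all listed) in √10 steps, and nuclei were counted on 4× images. Relative viability is the ratio of nuclei in treated wells to nuclei in vehicle wells, taken as the median of duplicate plates.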

Cell Line | relative viability
PC-3 [JPC-3] | 0.806

Compound: CC1=C(C(=NN1)C)CC2=C(C3=C(S2)N(C(=O)N(C3=O)C)CC(C)C)C(=O)N4C[C@@H](CO4)O + COc1cc2c(Oc3ccc(NC(=O)C4(C(=O)Nc5ccc(F)cc5)CC4)cc3F)ccnc2cc1OCCCN1CCOCC1 [Foretinib] (partner 0.25 µM)
Experiment: as above
Conditions: first compound 0.0025 µM
Outline: as §1

Cell Line | relative viability
201T | 1.18
NCI-H1915 | 1.18
HCC-827 | 1.02
LXF-289 | 0.963
NCI-H23 | 1.05
NCI-H647 | 1.23
CAL-12T | 1.08
NCI-H1651 | 0.708
EPLC-272H | 0.73
NCI-H1355 | 1.04
NCI-H3122 | 0.936
NCI-H1437 | 1.26
NCI-H1755 | 0.97
HCC-15 | 1.05
NCI-H1793 | 0.67
PC-14 | 0.973
EKVX | 0.884
LC-2-ad | 0.897
NCI-H1944 | 0.985
NCI-H1975 | 0.946
RERF-LC-KJ | 0.866
ABC-1 | 1.02
NCI-H358 | 0.636
NCI-H650 | 1.07
PC-3 [JPC-3] | 1.14

Same assay, conditions: first compound 0.007906 µM

Cell Line | relative viability
201T | 1.16
NCI-H1915 | 1.12
HCC-827 | 1.09
LXF-289 | 0.926
NCI-H23 | 0.992
NCI-H647 | 1.27
CAL-12T | 1.3
NCI-H1651 | 0.832
EPLC-272H | 0.618
NCI-H1355 | 1.11
NCI-H3122 | 0.982
NCI-H1437 | 1.29
NCI-H1755 | 0.996
HCC-15 | 0.989
NCI-H1793 | 0.784
PC-14 | 0.936
EKVX | 0.736
LC-2-ad | 0.836
NCI-H1944 | 1.02
NCI-H1975 | 1.06
RERF-LC-KJ | 0.942
ABC-1 | 1.06
NCI-H358 | 0.76
NCI-H650 | 0.937
PC-3 [JPC-3] | 1.01

Same assay, conditions: first compound 0.025 µM

Cell Line | relative viability
201T | 1.02
NCI-H1915 | 1.05
HCC-827 | 1.01
LXF-289 | 1.02
NCI-H23 | 0.965
NCI-H647 | 1.13
CAL-12T | 1.05
NCI-H1651 | 0.735
EPLC-272H | 0.765
NCI-H1355 | 1
NCI-H3122 | 0.988
NCI-H1437 | 1.18
NCI-H1755 | 0.873
HCC-15 | 0.961
NCI-H1793 | 0.732
PC-14 | 0.941
EKVX | 0.69
LC-2-ad | 0.911
NCI-H1944 | 0.898
NCI-H1975 | 1
RERF-LC-KJ | 0.909
ABC-1 | 0.955
NCI-H358 | 0.664
NCI-H650 | 0.938
PC-3 [JPC-3] | 1.05

Same assay, conditions: first compound 0.07906 µM

Cell Line | relative viability
201T | 1.11
NCI-H1915 | 1.01
HCC-827 | 1.02
LXF-289 | 0.994
NCI-H23 | 1.07
NCI-H647 | 1.19
CAL-12T | 1.25
NCI-H1651 | 0.821
EPLC-272H | 0.657
NCI-H1355 | 1.02
NCI-H3122 | 0.99
NCI-H1437 | 1.3
NCI-H1755 | 0.911
HCC-15 | 1.03
NCI-H1793 | 0.665
PC-14 | 0.942
EKVX | 0.732
LC-2-ad | 1.06
NCI-H1944 | 1.02
NCI-H1975 | 0.949
RERF-LC-KJ | 0.886
ABC-1 | 1.07
NCI-H358 | 0.766
NCI-H650 | 0.977
PC-3 [JPC-3] | 1.02

Same assay, conditions: first compound 0.25 µM

Cell Line | relative viability
201T | 1.2
NCI-H1915 | 1.11
HCC-827 | 1.02
LXF-289 | 1.03
NCI-H23 | 1.16
NCI-H647 | 1.2
CAL-12T | 1.17
NCI-H1651 | 0.815
EPLC-272H | 0.643
NCI-H1355 | 1.12
NCI-H3122 | 0.983
NCI-H1437 | 1.24
NCI-H1755 | 0.897
HCC-15 | 1.2
NCI-H1793 | 0.605
PC-14 | 1.09
EKVX | 0.744
LC-2-ad | 1.08
NCI-H1944 | 0.889
NCI-H1975 | 0.984
RERF-LC-KJ | 0.935
ABC-1 | 1
NCI-H358 | 0.791
NCI-H650 | 1.08
PC-3 [JPC-3] | 1.08

Compound: Cc1ccccc1C(C(=O)NC1CCCCC1)N(C(=O)Cn1ccnc1C)c1cccc(F)c1 [IDH-C35] + Cc1nc(NC(=O)N2CCC[C@H]2C(N)=O)sc1-c1ccnc(C(C)(C)C(F)(F)F)c1 [Alpelisib] (partner 2 µM)
Experiment: as above
Conditions: first compound 0.08 µM
Outline: as §1

Cell Line | relative viability
201T | 0.989
NCI-H1915 | 1.08
HCC-827 | 0.917
LXF-289 | 1.04
NCI-H23 | 0.622
NCI-H647 | 1.14
CAL-12T | 1.26
NCI-H1651 | 1.03
EPLC-272H | 1.04
NCI-H1355 | 0.894
NCI-H3122 | 0.904
NCI-H1437 | 0.961
NCI-H1755 | 0.976
HCC-15 | 0.904
NCI-H1793 | 0.764
PC-14 | 1.02
EKVX | 0.868
LC-2-ad | 0.888
NCI-H1944 | 0.848
NCI-H1975 | 0.55
RERF-LC-KJ | 0.824
ABC-1 | 0.907
NCI-H358 | 0.916
NCI-H650 | 1.07
PC-3 [JPC-3] | 1.08

Same assay, conditions: first compound 0.253 µM

Cell Line | relative viability
201T | 0.998
NCI-H1915 | 1.07
HCC-827 | 0.897
LXF-289 | 1.03
NCI-H23 | 0.591
NCI-H647 | 1.23
CAL-12T | 1.26
NCI-H1651 | 0.812
EPLC-272H | 0.942
NCI-H1355 | 0.787
NCI-H3122 | 0.739
NCI-H1437 | 0.992
NCI-H1755 | 0.875
HCC-15 | 0.844
NCI-H1793 | 0.689
PC-14 | 0.956
EKVX | 0.858
LC-2-ad | 0.815
NCI-H1944 | 0.911
NCI-H1975 | 0.636
RERF-LC-KJ | 0.827
ABC-1 | 1.03
NCI-H358 | 0.871
NCI-H650 | 1.13
PC-3 [JPC-3] | 1.04

Same assay, conditions: first compound 0.8 µM

Cell Line | relative viability
201T | 0.95
NCI-H1915 | 1.04
HCC-827 | 1.04
LXF-289 | 1.01
NCI-H23 | 0.648
NCI-H647 | 1.14
CAL-12T | 1.11
NCI-H1651 | 0.937
EPLC-272H | 0.895
NCI-H1355 | 0.801
NCI-H3122 | 0.729
NCI-H1437 | 0.896
NCI-H1755 | 0.955
HCC-15 | 0.822
NCI-H1793 | 0.76
PC-14 | 0.959
EKVX | 0.852
LC-2-ad | 0.834
NCI-H1944 | 0.826
NCI-H1975 | 0.712
RERF-LC-KJ | 0.853
ABC-1 | 1
NCI-H358 | 0.746
NCI-H650 | 1.17
PC-3 [JPC-3] | 0.988

Same assay, conditions: first compound 2.53 µM

Cell Line | relative viability
201T | 0.968
NCI-H1915 | 1.05
HCC-827 | 1
LXF-289 | 0.994
NCI-H23 | 0.73
NCI-H647 | 1.12
CAL-12T | 1.14
NCI-H1651 | 0.945
NCI-H1355 | 0.864
NCI-H3122 | 0.78
NCI-H1437 | 0.933
NCI-H1755 | 0.927
HCC-15 | 0.854
NCI-H1793 | 0.74
PC-14 | 0.927
EKVX | 0.819
LC-2-ad | 0.894
NCI-H1944 | 0.75
NCI-H1975 | 0.658
RERF-LC-KJ | 0.73
ABC-1 | 1.05
NCI-H358 | 0.857
PC-3 [JPC-3] | 1.08

Same assay, conditions: first compound 8 µM

Cell Line | relative viability
201T | 1.02
NCI-H1915 | 1.04
HCC-827 | 0.75
LXF-289 | 1.03
NCI-H23 | 0.834
NCI-H647 | 0.917
CAL-12T | 1.1
NCI-H1651 | 1
EPLC-272H | 0.897
NCI-H1355 | 0.849
NCI-H3122 | 0.849
NCI-H1437 | 0.966
NCI-H1755 | 0.877
HCC-15 | 0.852
NCI-H1793 | 0.677
PC-14 | 0.758
EKVX | 0.831
LC-2-ad | 0.921
NCI-H1944 | 0.81
NCI-H1975 | 0.654
RERF-LC-KJ | 0.886
ABC-1 | 0.857
NCI-H358 | 0.915
NCI-H650 | 1.03
PC-3 [JPC-3] | 1.04
